In patent publication US20110086759A1, “CHEMICAL COMPOUNDS” (SYNGENTA CROP PROTECTION, INC., priority 2007, published 2011):

Columns and labels:
Assay type in all cases: in vivo
[1] = tested on: Alopecurus myosuroides (ALOMY); assay: Pre-emergence biological efficacy, glasshouse pot test; conditions: 312 h, pre-emergence, rate 1,000 g/ha, evaluated after 13 days (100=total damage to plant; 0=no damage), read-out: Percentage damage caused to weed species, ALOMY
Outline: (§1)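 Damage was rated on a 0–100 scale 13 days after treatment, with plants kept at 24/16° C, 14 h light and 65% humidity. The pre-emergence spray, at 1000 or 250 g/ha in acetone/water 50:50 with 0.5% Tween 20, was applied one day after sowing.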

[2] = tested on: Amaranthus retoflexus (AMARE); assay: as above; conditions: Amaranthus retroflexus, 312 h; pre-emergence, rate 1,000 g/ha, evaluated after 13 days (100=total damage to plant; 0=no damage); read-out: Percentage damage caused to weed species, AMARE
Outline: as §1

[3] = tested on: Echinochloa crus-galli (ECHCG); assay: as above; conditions: 312 h, pre-emergence, rate 1,000 g/ha, evaluated after 13 days (100=total damage to plant; 0=no damage), read-out: Percentage damage caused to weed species, ECHCG
Outline: as §1

[4] = tested on: Ipomea hederaceae (IPOHE); assay: as above; conditions: Ipomoea hederacea, 312 h; pre-emergence, rate 1,000 g/ha, evaluated after 13 days (100=total damage to plant; 0=no damage); read-out: Percentage damage caused to weed species, IPOHE
Outline: as §1

Setaria faberi (SETFA) [5] = assay: as above; conditions: 312 h, pre-emergence, rate 1,000 g/ha, evaluated after 13 days (100=total damage to plant; 0=no damage), read-out: Percentage damage caused to weed species, SETFA
Outline: as §1

Solanum nigrum (SOLNI) [6] = assay: as above; conditions: 312 h, pre-emergence, rate 1,000 g/ha, evaluated after 13 days (100=total damage to plant; 0=no damage), read-out: Percentage damage caused to weed species, SOLNI
Outline: as §1

[7] = tested on: Alopecurus myosuroides (ALOMY); assay: Post-emergence biological efficacy, glasshouse pot test; conditions: 312 h, Rate 1,000 g/ha, post-emergence spray, evaluated after 13 days (100=total damage to plant; 0=no damage to plant), read-out: Percentage damage caused to weed species, post-emergence, ALOMY
Outline: (§2)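 Scored 13 days after spraying on a 0 (no damage) to 100 (total damage) scale. Treatment was a post-emergence spray at 1000 or 250 g/ha, from acetone/water 50:50 plus 0.5% Tween 20, onto 8-day-old plants in soil pots. Growth at 24/16° C, 14 h photoperiod, 65% humidity, watered twice daily.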

[8] = tested on: Amaranthus retoflexus (AMARE); assay: as above; conditions: Amaranthus retroflexus, 312 h; Rate 1,000 g/ha; post-emergence spray; evaluated after 13 days (100=total damage to plant; 0=no damage to plant); read-out: Percentage damage caused to weed species, post-emergence, AMARE
Outline: as §2

[9] = tested on: Echinochloa crus-galli (ECHCG); assay: as above; conditions: 312 h, Rate 1,000 g/ha, post-emergence spray, evaluated after 13 days (100=total damage to plant; 0=no damage to plant), read-out: Percentage damage caused to weed species, post-emergence, ECHCG
Outline: as §2

[10] = tested on: Ipomea hederaceae (IPOHE); assay: as above; conditions: Ipomoea hederacea, 312 h; Rate 1,000 g/ha; post-emergence spray; evaluated after 13 days (100=total damage to plant; 0=no damage to plant); read-out: Percentage damage caused to weed species, post-emergence, IPOHE
Outline: as §2

Setaria faberi (SETFA) [11] = assay: as above; conditions: 312 h, Rate 1,000 g/ha, post-emergence spray, evaluated after 13 days (100=total damage to plant; 0=no damage to plant), read-out: Percentage damage caused to weed species, post-emergence, SETFA
Outline: as §2

Solanum nigrum (SOLNI) [12] = assay: as above; conditions: 312 h, Rate 1,000 g/ha, post-emergence spray, evaluated after 13 days (100=total damage to plant; 0=no damage to plant), read-out: Percentage damage caused to weed species, post-emergence, SOLNI
Outline: as §2

Compound	pest or weed control at 1000 g/ha [1] [%]	pest or weed control at 1000 g/ha [2] [%]	pest or weed control at 1000 g/ha [3] [%]	pest or weed control at 1000 g/ha [4] [%]	pest or weed control at 1000 g/ha (Setaria faberi (SETFA) [5]) [%]	pest or weed control at 1000 g/ha (Solanum nigrum (SOLNI) [6]) [%]	pest or weed control at 1000 g/ha [7] [%]	pest or weed control at 1000 g/ha [8] [%]	pest or weed control at 1000 g/ha [9] [%]	pest or weed control at 1000 g/ha [10] [%]	pest or weed control at 1000 g/ha (Setaria faberi (SETFA) [11]) [%]	pest or weed control at 1000 g/ha (Solanum nigrum (SOLNI) [12]) [%]
COC(=O)c1nc(-c2cc(F)c(Cl)c(F)c2)nc(NCc2ccco2)c1Cl [Compound 232-48, 5-Chloro-2-(4-chloro-3,5-difluorophenyl)-4-(furan-2-ylmethyl-amino)-6-methoxy-carbonylpyrimidine]	0	0	0	0	0	0	0	20	0	10	0	60
COC(=O)c1nc(-c2ccc(C(F)(F)F)cc2)nc(NCc2ccco2)c1Cl [Compound 233-48, 5-Chloro-4-(furan-2-ylmethylamino)-6-methoxycarbonyl-2-(4-trifluoromethyl-phenyl)pyrimidine]	30	100	20	60	20	100	20	80	30	70	10	80
COC(=O)c1nc(-c2ccc(C(F)(F)F)cc2C(F)(F)F)nc(NCc2ccco2)c1Cl [Compound 234-48, 2-[2,4-Bis(trifluoro-methyl)phenyl]-5-chloro-4-(furan-2-yl-methylamino)-6-methoxycarbonyl-pyrimidine]	20	90	10	100	10	80	10	100	30	100	40	80
COC(=O)c1nc(-c2ccc(C(F)(F)F)c(Cl)c2)nc(NCc2ccco2)c1Cl [Compound 235-48, 5-Chloro-2-(3-chloro-4-trifluoromethyl-phenyl)-4-(furan-2-ylmethylamino)-6-methoxycarbonyl-pyrimidine]	0	10	0	20	0	20	10	80	0	60	10	80
COC(=O)c1nc(-c2ccc(C)cc2)nc(NCc2ccco2)c1Cl [Compound 237-48, 5-Chloro-4-(furan-2-ylmethylamino)-6-methoxycarbonyl-2-(4-methylphenyl)-pyrimidine]	20	100	20	30	0	0	0	100	0	70	0	60
COC(=O)c1nc(-c2ccc(C)cc2Cl)nc(NCc2ccco2)c1Cl [Compound 238-48, 5-Chloro-2-(2-chloro-4-methylphenyl)-4-(furan-2-yl-methyl-amino)-6-methoxy-carbonylpyrimidine]	20	100	0	0	10	0	10	100	0	60	0	30
COC(=O)c1nc(-c2ccc(C)c(Cl)c2)nc(NCc2ccco2)c1Cl [Compound 239-48, 5-Chloro-2-(3-chloro-4-methylphenyl)-4-(furan-2-yl-methyl-amino)-6-methoxy-carbonylpyrimidine]	0	0	0	0	0	0	0	20	0	30	0	30
COC(=O)c1nc(-c2ccc(C)c(F)c2)nc(NCc2ccco2)c1Cl [Compound 240-48, 5-Chloro-2-(3-fluoro-4-methylphenyl)-4-(furan-2-yl-methyl-amino)-6-methoxy-carbonylpyrimidine]	0	100	0	0	0	50	0	100	20	70	10	30
COC(=O)c1nc(-c2cc(F)c(F)cc2F)nc(NCc2ccco2)c1Cl [Compound 241-48, 5-Chloro-4-(furan-2-ylmethylamino)-6-methoxycarbony-2-(2,4,5-trifluoro-phenyl)pyrimidine]	0	80	0	10	0	0	10	80	0	60	10	50
COC(=O)c1nc(-c2ccc(F)cc2)nc(NCc2ccco2)c1Cl [Compound 242-48, 5-Chloro-2-(4-fluorophenyl)-4-(furan-2-yl-methyl-amino)-6-methoxy-carbonylpyrimidine]	10	100	0	20	0	20	20	100	20	60	20	50
